Experimental data reported in US8399465B2, “Compounds with two fused bicyclic heteroaryl moieties as modulators of leukotriene A4 hydrolase” (Janssen Pharmaceutica NV, priority 2009, dated 2013).
Structures can show the parent of a compound that is named as a salt.

These compounds were tested against T1, recombinant human LTA4 hydrolase (rhLTA4H) (Homo sapiens, UniProt P09960) (assay: Recombinant human LTA4 hydrolase assay for LTA4 hydrolase inhibitor activity). Conditions: rhLTA4H, LTB4 by immunoassay; single determination or average of two or more; mark after value = form tested: ′ free base, ″ hydrochloride, ^ formate; read-out: IC50.
T1 construct: made in house; host or cells: Spodoptera frugiperda (Sf-9) cells, baculovirus (pFastBac1)
T1 sequence (P09960 1-611): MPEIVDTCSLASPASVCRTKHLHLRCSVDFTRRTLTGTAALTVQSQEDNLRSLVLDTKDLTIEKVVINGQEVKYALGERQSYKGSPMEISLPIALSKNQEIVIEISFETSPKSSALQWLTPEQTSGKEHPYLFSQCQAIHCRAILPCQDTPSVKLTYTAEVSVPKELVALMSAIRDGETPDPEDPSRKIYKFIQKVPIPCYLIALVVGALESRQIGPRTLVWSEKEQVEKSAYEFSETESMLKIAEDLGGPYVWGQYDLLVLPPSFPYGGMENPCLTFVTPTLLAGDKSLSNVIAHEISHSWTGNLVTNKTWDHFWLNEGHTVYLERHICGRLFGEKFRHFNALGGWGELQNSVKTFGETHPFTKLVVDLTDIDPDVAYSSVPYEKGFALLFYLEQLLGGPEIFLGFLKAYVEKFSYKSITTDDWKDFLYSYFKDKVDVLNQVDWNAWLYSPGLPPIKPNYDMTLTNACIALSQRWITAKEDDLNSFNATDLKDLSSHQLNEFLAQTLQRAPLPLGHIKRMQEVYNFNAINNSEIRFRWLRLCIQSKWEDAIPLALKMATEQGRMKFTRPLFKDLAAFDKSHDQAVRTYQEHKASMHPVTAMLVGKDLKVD
Format: biochemical
Method: Assay 1: Recombinant Human LTA4 Hydrolase Assay for LTA4 Hydrolase Inhibitor Activity
Compounds of the present invention were tested for LTA4 hydrolase inhibitor activity against recombinant human LTA4 hydrolase (rhLTA4H). Vectors were prepared and used to express rhLTA4H essentially as follows: LTA4 hydrolase encoding DNA was amplified by polymerase chain reaction (PCR) using a human placental cDNA library as a template. […] The amplified 1.9 kb DNA fragment encoding LTA4 hydrolase was isolated and cloned into the pFastBac1 vector (Invitrogen). Recombinant baculovirus was generated as described by the manufacturer, and used to infect Spodoptera frugiperda (Sf-9) cells. […] The purified enzyme solution was adjusted to contain 0.29 mg/mL LTA4 hydrolase, 50 mM Tris (pH 8.0), 150 mM NaCl, 5 mM dithiothreitol, 50% glycerol, and EDTA-free Complete protease inhibitor cocktail (Roche).
LTA4 substrate was prepared from the methyl ester of LTA4 (Cayman Chemical) by treatment with 67 equiv of NaOH under nitrogen at rt for 40 min. The LTA4 substrate in its free acid form was kept frozen at −80° C. until needed. Each compound was diluted to different concentrations in assay buffer (from Assay Designs) containing 10% DMSO. A 25-μL aliquot of each compound dilution was incubated for 10 min at rt with an equal volume of assay buffer containing 10 ng of recombinant human LTA4H. The solution was then adjusted to 200 μL with assay buffer. […] Each reaction was carried out at rt for 30 min. The reaction was stopped by diluting 10 μL of the reaction mixture with 200 μL of assay buffer. LTB4 was quantified in the diluted sample by a commercially available enzyme-linked immunoassay (Cayman Chemical Co.), as recommended by the manufacturer. Positive controls, under essentially identical conditions but without addition of an inhibitor compound, and negative controls, containing all assay components except enzyme, were routinely run in each experiment. IC50 values were determined by nonlinear regression of the activity data at different compound concentrations using Graphpad Prism 4.0, one site binding competition.
The values presented here are the result of a single determination or an average of two or more determinations. Compounds that were not tested are indicated as such by a “NT” designation.
O=C(NCc1coc2cc(Oc3nc4ncccc4s3)ccc12)[C@@H]1C[C@@H]2CC[C@H]1C2 (relative stereo) [Example 389, endo-Bicyclo[2.2.1]heptane-2-carboxylic acid [6-(thiazolo[4,5-b]pyridin-2-yloxy)-benzofuran-3-ylmethyl]-amide] showed an IC50 of 120 nM. c1ccc2sc(Oc3ccc4[nH]cc(CN5CCCC5)c4c3)nc2c1 [Example 9, 2-(3-Pyrrolidin-1-ylmethyl-1H-indol-5-yloxy)-benzothiazole] gave an IC50 of 591 nM. c1ccc2sc(Oc3ccc4[nH]cc(CN5CCCCC5)c4c3)nc2c1 [Example 10, 2-(3-Piperidin-1-ylmethyl-1H-indol-5-yloxy)-benzothiazole] showed an IC50 of 415 nM. In the case of c1ccc2sc(Oc3ccc4[nH]cc(CN5CCOCC5)c4c3)nc2c1 [Example 11, 2-(3-Morpholin-4-ylmethyl-1H-indol-5-yloxy)-benzothiazole], the IC50 is reported as 1400 nM. c1ccc2sc(Oc3ccc4c(CN5CCc6sc7ccccc7c6C5)c[nH]c4c3)nc2c1 [Example 39, 2-[6-(Benzothiazol-2-yloxy)-1H-indol-3-ylmethyl]-1,2,3,4-tetrahydro-benzo[4,5]thieno[3,2-c]pyridine formate] showed an IC50 of 275 nM. CC(=O)N(CC(=O)O)[C@H]1C[C@H]2CC[C@@H](C1)N2Cc1c[nH]c2cc(Oc3nc4ccccc4s3)ccc12 [Example 48, meso-endo-(Acetyl-{8-[6-(benzothiazol-2-yloxy)-1H-indol-3-ylmethyl]-8-aza-bicyclo[3.2.1]oct-3-yl}-amino)-acetic acid] was tested, and the IC50 was 679 nM. Clc1cnc2nc(Oc3ccc4c(CN5CCOCC5)c[nH]c4c3)sc2c1 [Example 59, 6-Chloro-2-(3-morpholin-4-ylmethyl-1H-indol-6-yloxy)-thiazolo[4,5-b]pyridine] gave an IC50 of 111 nM. With Fc1cnc2sc(Oc3ccc4c(CN5CCOCC5)c[nH]c4c3)nc2c1 [Example 60, 6-Fluoro-2-(3-morpholin-4-ylmethyl-1H-indol-6-yloxy)-thiazolo[5,4-b]pyridine] the IC50 was 169 nM. Cn1cc(CN2CCOCC2)c2ccc(Oc3nc4ccccc4s3)cc21 [Example 61, 2-(1-Methyl-3-morpholin-4-ylmethyl-1H-indol-6-yloxy)-benzothiazole] gave an IC50 of 610 nM. In the case of CCn1c(CN2CCCCC2)cc2cc(Oc3nc4ccccc4s3)ccc21 [Example 62, 2-(1-Ethyl-2-piperidin-1-ylmethyl-1H-indol-5-yloxy)-benzothiazole], the IC50 is reported as 382 nM. CCn1c(CN2CCOCC2)cc2cc(Oc3nc4ccccc4s3)ccc21 [Example 63, 2-(1-Ethyl-2-morpholin-4-ylmethyl-1H-indol-5-yloxy)-benzothiazole] showed an IC50 of 1640 nM. O=C(O)C1CCN(CCc2c[nH]c3ccc(Oc4nc5ccccc5s4)cc23)CC1 [Example 73, 1-{2-[5-(Benzothiazol-2-yloxy)-1H-indol-3-yl]-ethyl}-piperidine-4-carboxylic acid] gave an IC50 of 3460 nM. In the case of c1ccc2sc(Oc3ccc4[nH]cc(CCN5CCCCC5)c4c3)nc2c1 [Example 74, 2-[3-(2-Piperidin-1-yl-ethyl)-1H-indol-5-yloxy]-benzothiazole], the IC50 is reported as 2030 nM. With NC(=O)C1CCN(CCc2c[nH]c3ccc(Oc4nc5ccccc5s4)cc23)CC1 [Example 75, 1-{2-[5-(Benzothiazol-2-yloxy)-1H-indol-3-yl]-ethyl}-piperidine-4-carboxylic acid amide] the IC50 was 714 nM. O=C(O)CC1CCN(Cc2cc3ccc(Oc4nc5ccccc5s4)cc3o2)CC1 [Example 78, {1-[6-(Benzothiazol-2-yloxy)-benzofuran-2-ylmethyl]-piperidin-4-yl}-acetic acid formate] gave an IC50 of 226 nM. In the case of O=C(O)CN1CCN(Cc2cc3ccc(Oc4nc5ccccc5s4)cc3o2)CC1 [Example 79, {4-[6-(Benzothiazol-2-yloxy)-benzofuran-2-ylmethyl]-piperazin-1-yl}-acetic acid formate], the IC50 is reported as 460 nM. c1ccc2sc(Oc3ccc4oc(CN5CCCCC5)cc4c3)nc2c1 [Example 82, 2-(2-Piperidin-1-ylmethyl-benzofuran-5-yloxy)-benzothiazole formate] gave an IC50 of 190 nM. Work on Fc1cccc2sc(Oc3ccc4oc(CN5CCCCC5)cc4c3)nc12 [Example 84, 4-Fluoro-2-(2-piperidin-1-ylmethyl-benzofuran-5-yloxy)-benzothiazole formate] yielded an IC50 of 236 nM. For c1cnc(OC2CCN(Cc3cc4cc(Oc5nc6ncccc6s5)ccc4o3)CC2)nc1 [Example 89, 2-{2-[4-(Pyrimidin-2-yloxy)-piperidin-1-ylmethyl]-benzofuran-5-yloxy}-thiazolo[4,5-b]pyridine], the IC50 was 149 nM. For c1cnc2nc(Oc3ccc4oc(CN5CCOCC5)cc4c3)sc2c1 [Example 97, 2-(2-Morpholin-4-ylmethyl-benzofuran-5-yloxy)-thiazolo[4,5-b]pyridine], the IC50 was 194 nM. With C[C@H]1COCCN1Cc1cc2cc(Oc3nc4ncccc4s3)ccc2o1 [Example 98, (3S)-2-[2-(3-Methyl-morpholin-4-ylmethyl)-benzofuran-5-yloxy]-thiazolo[4,5-b]pyridine] the IC50 was 153 nM. Compound O=C1CCCN1C1CCN(Cc2cc3ccc(Oc4nc5ncccc5s4)cc3o2)CC1 [Example 108, 1-{1-[6-(Thiazolo[4,5-b]pyridin-2-yloxy)-benzofuran-2-ylmethyl]-piperidin-4-yl}-pyrrolidin-2-one formate] has an IC50 of 145 nM. Compound c1cnc2nc(Oc3ccc4cc(CN5C[C@@H]6C[C@H]5CO6)oc4c3)sc2c1 [Example 109, (1S,4S)-2-[2-(2-Oxa-5-aza-bicyclo[2.2.1]hept-5-ylmethyl)-benzofuran-6-yloxy]-thiazolo[4,5-b]pyridine formate] has an IC50 of 186 nM. With c1cnc2nc(Oc3ccc4cc(CN5CC6COCC6C5)oc4c3)sc2c1 (stereo not shown) [Example 110, 2-[2-(Tetrahydro-furo[3,4-c]pyrrol-5-ylmethyl)-benzofuran-6-yloxy]-thiazolo[4,5-b]pyridine formate] the IC50 was 207 nM. With FC1CCN(Cc2cc3cc(Oc4nc5ncccc5s4)ccc3o2)CC1 [Example 111, 2-[2-(4-Fluoro-piperidin-1-ylmethyl)-benzofuran-5-yloxy]-thiazolo[4,5-b]pyridine] the IC50 was 281 nM. In the case of c1cnc2nc(Oc3ccc4oc(CN5CC6COCC6C5)cc4c3)sc2c1 (stereo not shown) [Example 113, 2-[2-(Tetrahydro-furo[3,4-c]pyrrol-5-ylmethyl)-benzofuran-5-yloxy]-thiazolo[4,5-b]pyridine], the IC50 is reported as 283 nM. c1cnc2nc(Oc3ccc4cc(CN5CCOCC5)oc4c3)sc2c1 [Example 115, 2-(2-Morpholin-4-ylmethyl-benzofuran-6-yloxy)-thiazolo[4,5-b]pyridine] was tested, and the IC50 was 327 nM. In the case of NC(=O)N1C[C@@H]2C[C@H]1CN2Cc1cc2ccc(Oc3nc4ncccc4s3)cc2o1 [Example 117, (1S,4S)-5-[6-(Thiazolo[4,5-b]pyridin-2-yloxy)-benzofuran-2-ylmethyl]-2,5-diaza-bicyclo[2.2.1]heptane-2-carboxylic acid amide], the IC50 is reported as 118 nM. Compound CC(=O)NC1CCN(Cc2cc3ccc(Oc4nc5ncccc5s4)cc3o2)C1 (stereo not shown) [Example 120, N-(1-{[6-([1,3]thiazolo[4,5-b]pyridin-2-yloxy)-1-benzofuran-2-yl]methyl}pyrrolidin-3-yl)acetamide formate] has an IC50 of 145 nM. CC(=O)N1C[C@@H]2C[C@H]1CN2Cc1cc2cc(Oc3nc4cccnc4s3)ccc2o1 [Example 121, (1S,4S)-1-{5-[5-(Thiazolo[5,4-b]pyridin-2-yloxy)-benzofuran-2-ylmethyl]-2,5-diaza-bicyclo[2.2.1]hept-2-yl}-ethanone] gave an IC50 of 488 nM. Compound CC(=O)N1C[C@@H]2C[C@H]1CN2Cc1cc2ccc(Oc3nc4cccnc4s3)cc2o1 [Example 122, (1S,4S)-1-{5-[6-(Thiazolo[5,4-b]pyridin-2-yloxy)-benzofuran-2-ylmethyl]-2,5-diaza-bicyclo[2.2.1]hept-2-yl}-ethanone] has an IC50 of 3430 nM.
